According to patent publication US6303619A, “Meta-substituted acidic 8-phenylxanthine antagonists of A3 human adenosine receptors” (priority 1998, dated 2001):

Legend:
[1] = molecular target: T1, human A2B adenosine receptor (Homo sapiens, UniProt P29275); experiment: competition binding, recombinant human A2B adenosine receptor; details: A3 versus A2B
T1 construct: expressed in transfected cells; host or cells: COS7 cells
T1 sequence (P29275 1-332): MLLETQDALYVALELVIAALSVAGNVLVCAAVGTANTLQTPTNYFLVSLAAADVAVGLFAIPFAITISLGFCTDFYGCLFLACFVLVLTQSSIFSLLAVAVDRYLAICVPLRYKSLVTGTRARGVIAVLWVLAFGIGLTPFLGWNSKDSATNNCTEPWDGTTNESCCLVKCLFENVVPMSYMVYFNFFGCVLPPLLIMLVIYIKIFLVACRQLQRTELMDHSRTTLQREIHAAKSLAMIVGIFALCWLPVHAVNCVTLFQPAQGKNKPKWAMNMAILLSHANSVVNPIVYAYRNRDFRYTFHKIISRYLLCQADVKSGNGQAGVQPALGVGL
Experimental: Monolayer cell culture of transfected COS7 cells were dissociated with 1 mM EDTA in phosphate buffered saline and resuspended in 5 mM Tris, pH7.6/10 mM MgCl2. The cells were subjected to freeze-thaw lysis and the suspension was homogenized in a glass dounce homogenizer. The membranes were pelleted, resuspended in binding buffer, 50 mM Tris pH 7.6/10 mM MgCl2 and incubated with adenosine deaminase before the binding assay. The binding assay was performed by incubating 50-100 Fg of membranes with increasing concentrations of radiolabeled adenosine agonists. Bound ligand was separated from free ligand by filtration on a SKATRON CELL […] equipped with a receptor binding filtermat. Bound radioactivity was measured by scintillation counting. Substances which bind to or enhance binding to expressed human adenosine receptors in COS and CHO cells can be identified in competition binding assays with radiolabeled adenosine or xanthine analogs. […] Membranes were prepared from transiently transfected COS7 cells 48 h after transfection or from G418-selected stably transfected CHO or HEK 293 cells. […] Protein concentration was determined by tie method of Bradford ((1976) Anal. Biochem. 72: 248-250). […] Bound radioactivity was measured by scintillation counting. Non-specific binding was measured on membranes prepared from non-transfected COS7 cells.

[2] = molecular target: T2, human A2A adenosine receptor (Homo sapiens, UniProt P29274); experiment: competition binding, recombinant human A2A adenosine receptor; details: A3 versus A2A
T2 construct: expressed in transfected cells; host or cells: COS7 cells
Experimental: Monolayer cell culture of transfected COS7 cells were dissociated with 1 mM EDTA in phosphate buffered saline and resuspended in 5 mM Tris, pH7.6/10 mM MgCl2. The cells were subjected to freeze-thaw lysis and the suspension was homogenized in a glass dounce homogenizer. The membranes were pelleted, resuspended in binding buffer, 50 mM Tris pH 7.6/10 mM MgCl2 and incubated with adenosine deaminase before the binding assay. The binding assay was performed by incubating 50-100 Fg of membranes with increasing concentrations of radiolabeled adenosine agonists. Bound ligand was separated from free ligand by filtration on a SKATRON CELL […] equipped with a receptor binding filtermat. Bound radioactivity was measured by scintillation counting. Substances which bind to or enhance binding to expressed human adenosine receptors in COS and CHO cells can be identified in competition binding assays with radiolabeled adenosine or xanthine analogs. […] Protein concentration was determined by tie method of Bradford ((1976) Anal. Biochem. 72: 248-250). […] Bound radioactivity was measured by scintillation counting in READY SAFE SCINTILLATION COCKTAIL (BECKMAN). […] Non-specific binding was determined in the presence of 100 FM CPA. Bound radioactivity was measured by scintillation counting in READY SAFE LIQUID SCINTILLATION COCKTAIL (BECKMAN).

T2 sequence (P29274 whole entry): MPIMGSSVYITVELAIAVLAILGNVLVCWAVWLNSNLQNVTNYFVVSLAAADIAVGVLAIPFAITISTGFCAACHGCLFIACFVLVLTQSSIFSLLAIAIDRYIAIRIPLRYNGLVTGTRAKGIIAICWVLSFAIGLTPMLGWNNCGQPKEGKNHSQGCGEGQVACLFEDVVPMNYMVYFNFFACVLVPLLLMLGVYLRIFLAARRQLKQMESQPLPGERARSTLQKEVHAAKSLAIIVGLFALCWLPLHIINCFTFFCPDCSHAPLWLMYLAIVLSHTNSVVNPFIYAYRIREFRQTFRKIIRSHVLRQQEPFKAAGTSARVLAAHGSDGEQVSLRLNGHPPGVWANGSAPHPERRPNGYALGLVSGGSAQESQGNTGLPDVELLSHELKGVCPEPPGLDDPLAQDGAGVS

In the case of `CCCn1c(=O)c2[nH]c(-c3cccc(C=CC(=O)O)c3)nc2n(CCC)c1=O` [BW-3911], the “fold selectivity for A3 compared to human A2B” value [1] is reported as 70 fold and the “fold selectivity for A3 compared to human A2A” value [2] is reported as 18 fold.
